Structures are written as SMILES. A value given as a limit tells only on which side of the number the result lay.

Broadly, the IC50 is the concentration at which inhibition is half-maximal.

One experiment relates to A549 human lung epithelium cell line. The experiment can be described thus: RANTES production in response to TNF-α from A549 cells. The experiment is classed as cell-based. Conditions: A549 cells, 100 ng/ml TNF-α, read-out: Cellular activity grade (A549) (Cellular IC50). The gist of the method:
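RANTES released into supernatant was measured by DELFIA-type sandwich immunoassay, Eu-labelled detection antibody, 340 nm excitation/615 nm emission, recombinant RANTES standard. Beforehand, cells seeded at 4×10^4/well received test compound (1% DMSO) for 1 h at 37 °C, followed by 24 h TNF-α (100 ng/ml) stimulation.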
`Cc1ccc(COc2cccc(O)c2-c2cc(C3CCCNC3)c(C#N)c(N)n2)cc1` (centres unmarked) [Example 2-35]: the IC50 was less than 1000 nM. On to `N#Cc1c(C2CCCNC2)cc(-c2c(O)cccc2OCc2ccc(C(F)(F)F)cc2)nc1N` (centres unmarked) [Example 2-36], for which the IC50 is less than 1000 nM.

As for `N#Cc1c(C2CCCNC2)cc(-c2c(O)cccc2OCc2ccccc2F)nc1N` (centres unmarked) [Example 2-37], the IC50 was less than 1000 nM.

For `COC(=O)c1ccc(COc2cccc(O)c2-c2cc(C3CCCNC3)c(C#N)c(N)n2)cc1` (centres unmarked) [Example 2-38], the IC50 is less than 1000 nM. As for `N#Cc1c(C2CCCNC2)cc(-c2c(O)cccc2OCc2ccc(Br)cc2)nc1N` (centres unmarked) [Example 2-39], the IC50 was less than 1000 nM.

Staying with this experiment, now noted: Homo sapiens, A549, A549 cells, 100 ng/ml TNF-α, read-out: Cellular activity grade (A549) (Cellular IC50).
For `N#Cc1c(C2CCCNC2)cc(-c2c(O)cccc2OCc2ccc(Cl)c(Cl)c2)nc1N` (centres unmarked) [Example 2-05], the IC50 fell in the range of 1000 to 10000 nM. With `Cc1ccccc1COc1cccc(O)c1-c1cc(C2CCCNC2)c(C#N)c(N)n1` (centres unmarked) [Example 2-06], the IC50 lay in the range of 1000 to 10000 nM. On to `N#Cc1c(C2CCCNC2)cc(-c2c(O)cccc2OCc2ccccc2-c2ccccc2)nc1N` (centres unmarked) [Example 2-22], for which the IC50 was in the range of 1000 to 10000 nM. `N#Cc1c(C2CCNCC2)cc(-c2c(O)cccc2OCc2ccccc2)nc1N` [Example 2-23]: the IC50 fell in the range of 1000 to 10000 nM. Same read-out and setting: with `N#Cc1c(C2CCCNC2)cc(-c2c(O)cccc2OCc2ccc(Br)cc2)nc1N` (centres unmarked) [Example 2-24] the figure was less than 1000 nM. Still for that read-out and setting: with `N#Cc1c(C2CCCNC2)cc(-c2c(O)cccc2OCc2ccccc2F)nc1N` (centres unmarked) [Example 2-25] the figure was less than 1000 nM; with `N#Cc1c(C2CCCNC2)cc(-c2c(O)cccc2OCc2ccc(F)cc2F)nc1N` (centres unmarked) [Example 2-26], less than 1000 nM. Consider `N#Cc1c(C2CCCNC2)cc(-c2c(O)cccc2OCc2cccc(F)c2)nc1N` (centres unmarked) [Example 2-27], for which the IC50 was less than 1000 nM. `N#Cc1c(C2CCCNC2)cc(-c2c(O)cccc2OCc2ccc(F)cc2)nc1N` (centres unmarked) [Example 2-28]: the IC50 is less than 1000 nM.

For `N#Cc1c(C2CCCNC2)cc(-c2c(O)cccc2OCc2ccc(F)c(F)c2)nc1N` (centres unmarked) [Example 2-29], the IC50 lay within 1000 to 10000 nM. On to `COC(=O)c1ccc(COc2cccc(O)c2-c2cc(C3CCCNC3)c(C#N)c(N)n2)cc1` (centres unmarked) [Example 2-30], for which the IC50 was less than 1000 nM. Regarding `CC(C)(C)c1ccc(COc2cccc(O)c2-c2cc(C3CCCNC3)c(C#N)c(N)n2)cc1` (centres unmarked) [Example 2-31], the IC50 is less than 1000 nM. Same read-out and setting: with `N#Cc1c(C2CCCNC2)cc(-c2c(O)cccc2OCc2cccc3ccccc23)nc1N` (centres unmarked) [Example 2-32] the figure was 1000 to 10000 nM. Still for that read-out and setting: next, `N#Cc1c(C2CCCNC2)cc(-c2c(O)cccc2OCc2ccc(-c3ccccc3)cc2)nc1N` (centres unmarked) [Example 2-33]: 1000 to 10000 nM. Same read-out and setting: next, `N#Cc1c(C2CCCNC2)cc(-c2c(O)cccc2OCc2ccc(Cl)cc2Cl)nc1N` (centres unmarked) [Example 2-34]: 1000 to 10000 nM; `N#Cc1c(CCN)cc(-c2c(O)cccc2OCc2ccccc2)nc1N` [Example 2-40]: less than 1000 nM; `N#Cc1c(C2CCCNC2)cc(-c2c(O)cccc2OCCc2ccccc2)nc1N` (centres unmarked) [Example 2-41]: less than 1000 nM. Take `N#Cc1c(C2CCCNC2)cc(-c2c(O)cccc2OCc2ccccn2)nc1N` (centres unmarked) [Example 2-42]: the IC50 was 1000 to 10000 nM. On the same count and under the same terms, with `N#Cc1c(C2CCCNC2)cc(-c2c(O)cccc2OCc2cccnc2)nc1N` (centres unmarked) [Example 2-43] the figure was less than 1000 nM.

`N#Cc1c(C2CCCNC2)cc(-c2c(O)cccc2OCc2ccncc2)nc1N` (centres unmarked) [Example 2-44]: the IC50 was less than 1000 nM. Take `N#Cc1c(C2CCCNC2)cc(-c2c(O)cccc2OCc2ccc3ccccc3n2)nc1N` (centres unmarked) [Example 2-45]: the IC50 is less than 1000 nM.

Take `N#Cc1c(C2CCCNC2)cc(-c2c(O)cccc2OCCC(c2ccccc2)c2ccccc2)nc1N` (centres unmarked) [Example 2-46]: the IC50 lay within 1000 to 10000 nM. The same measure, in the same setting: with `N#Cc1c(C2CCCNC2)cc(-c2c(O)cccc2OCc2csc3ccc(Cl)cc23)nc1N` (centres unmarked) [Example 2-47] the figure was 1000 to 10000 nM; with `N#Cc1c(C2CCCNC2)cc(-c2c(O)cccc2OCc2ncon2)nc1N` (centres unmarked) [Example 2-48], less than 1000 nM. Still for that read-out and setting: with `Cc1cc(COc2cccc(O)c2-c2cc(C3CCCNC3)c(C#N)c(N)n2)no1` (centres unmarked) [Example 2-49] the figure was less than 1000 nM; with `N#Cc1c(C2CCCNC2)cc(-c2c(O)cccc2OCCCc2ccccc2)nc1N` (centres unmarked) [Example 2-50], less than 1000 nM.

With `N#Cc1c(C2CCCNC2)cc(-c2c(O)cccc2OCC(=O)c2ccccc2)nc1N` (centres unmarked) [Example 2-51], the IC50 is less than 1000 nM. The same measure, in the same setting: with `N#Cc1c(C2CCNCC2)cc(-c2c(O)cccc2OCCc2ccccc2)nc1N` [Example 2-52] the figure was less than 1000 nM; with `N#Cc1c(C2CCCNC2)cc(-c2c(O)cccc2OCC2CCCCC2)nc1N` (centres unmarked) [Example 2-53], less than 1000 nM. The same measure, in the same setting: next, `CC(C)Oc1cccc(O)c1-c1cc(C2CCCNC2)c(C#N)c(N)n1` (centres unmarked) [Example 2-54]: less than 1000 nM; `CCCOc1cccc(O)c1-c1cc(C2CCCNC2)c(C#N)c(N)n1` (centres unmarked) [Example 2-55]: less than 1000 nM. The same measure, in the same setting: with `C=CCOc1cccc(O)c1-c1cc(C2CCCNC2)c(C#N)c(N)n1` (centres unmarked) [Example 2-56] the figure was less than 1000 nM. For `COc1cccc(O)c1-c1cc(C2CCCNC2)c(C#N)c(N)n1` (centres unmarked) [Example 2-57], the IC50 is less than 1000 nM. Still for that read-out and setting: next, `CCOc1cccc(O)c1-c1cc(C2CCCNC2)c(C#N)c(N)n1` (centres unmarked) [Example 2-58]: less than 1000 nM; `CC(C)COc1cccc(O)c1-c1cc(C2CCCNC2)c(C#N)c(N)n1` (centres unmarked) [Example 2-59]: less than 1000 nM; `CCCCCOc1cccc(O)c1-c1cc(C2CCCNC2)c(C#N)c(N)n1` (centres unmarked) [Example 2-60]: less than 1000 nM. Same read-out and setting: next, `CN1CCCC(c2cc(-c3ccccc3O)nc(N)c2C#N)C1` (centres unmarked) [Example 3-03]: less than 1000 nM; `CCCN1CCCC(c2cc(-c3ccccc3O)nc(N)c2C#N)C1` (centres unmarked) [Example 3-04]: 1000 to 10000 nM; `N#Cc1c(C2CCCN(Cc3ccccc3)C2)cc(-c2ccccc2O)nc1N` (centres unmarked) [Example 3-05]: less than 1000 nM.

Consider `N#Cc1c(C2CCCN(CCc3ccccc3)C2)cc(-c2ccccc2O)nc1N` (centres unmarked) [Example 3-06], for which the concentration for half-maximal inhibition (IC50) fell in the range of 1000 to 10000 nM. For `COc1ccc(CN2CCCC(c3cc(-c4c(O)cccc4O)nc(N)c3C#N)C2)cc1` (centres unmarked) [Example 3-07], the IC50 lay in the range of 1000 to 10000 nM.

With `COc1ccc(CN2CCCC(c3cc(-c4c(O)cccc4OCC4CC4)nc(N)c3C#N)C2)cc1` (centres unmarked) [Example 3-08], the IC50 was more than 10000 nM. In the case of `Nc1nc(-c2c(O)cccc2OCc2ccccc2)cc(C2CCCNC2)c1CO` (centres unmarked) [Example 12-02], the IC50 lay in the range of 1000 to 10000 nM.

With `CCCOc1cccc(O)c1-c1cc(C2CCCNC2)c(CO)c(N)n1` (centres unmarked) [Example 12-03], the IC50 is less than 1000 nM. Same read-out and setting: with `CC(C)(C)COc1cccc(O)c1-c1cc(C2CCCNC2)c(CO)c(N)n1` (centres unmarked) [Example 12-04] the figure was less than 1000 nM; with `Nc1nc(-c2c(O)cccc2OCC2CC2)cc(C2CCNCC2)c1CO` [Example 12-05], less than 1000 nM; with `CCCOc1cccc(O)c1-c1cc(C2CCNCC2)c(CO)c(N)n1` [Example 12-06], less than 1000 nM. The same measure, in the same setting: next, `CC(C)CCCOc1cccc(O)c1-c1cc(C2CCNCC2)c(CO)c(N)n1` [Example 12-07]: less than 1000 nM; `O=C1Nc2nc(-c3c(O)cccc3F)cc(C3CCCNC3)c2CO1` (centres unmarked) [Example 18-07]: less than 1000 nM; `O=C1Nc2nc(-c3ncccc3O)cc(C3CCCNC3)c2CO1` (centres unmarked) [Example 18-08]: less than 1000 nM. `Cc1cc(-c2c(O)cccc2OCC2CC2)nc2c1COC(=O)N2` [Example 18-09]: the IC50 is less than 1000 nM. With `O=C1Nc2nc(-c3c(O)cccc3OCc3ccccc3)cc(C3CCCNC3)c2CO1` (centres unmarked) [Example 18-10], the IC50 is less than 1000 nM. The same measure, in the same setting: next, `CCCOc1cccc(O)c1-c1cc(C2CCCNC2)c2c(n1)NC(=O)OC2` (centres unmarked) [Example 18-11]: less than 1000 nM; `O=C1Nc2nc(-c3c(O)cccc3O)cc(C3CCNCC3)c2CO1` [Example 18-12]: more than 10000 nM; `O=C1Nc2nc(-c3c(O)cccc3OCC3CC3)cc(C3CCNCC3)c2CO1` [Example 18-13]: less than 1000 nM. As for `CCCOc1cccc(O)c1-c1cc(C2CCNCC2)c2c(n1)NC(=O)OC2` [Example 18-14], the IC50 was less than 1000 nM.

Turning to `CC(C)CCCOc1cccc(O)c1-c1cc(C2CCNCC2)c2c(n1)NC(=O)OC2` [Example 18-15], the IC50 was less than 1000 nM.

Turning to `O=C1Nc2nc(-c3c(O)cccc3OCc3ccccc3)cc(C3CCNCC3)c2CO1` [Example 18-16], the half-maximal inhibitory concentration (IC50) was in the range of 1000 to 10000 nM. Still for that read-out and setting: next, `CC(=O)NCc1c(C2CCCNC2)cc(-c2ccccc2O)nc1N` (centres unmarked) [Example 23-04]: less than 1000 nM. `Nc1nc(-c2ccccc2O)cc(C2CCCNC2)c1CNC(=O)C1CC1` (centres unmarked) [Example 23-05]: the IC50 is less than 1000 nM. On the same count and under the same terms, next, `CCC(=O)NCc1c(C2CCCNC2)cc(-c2ccccc2O)nc1N` (centres unmarked) [Example 23-06]: 1000 to 10000 nM. Still for that read-out and setting: with `CC(=O)NCc1c(C2CCNCC2)cc(-c2c(O)cccc2OCC2CC2)nc1N` [Example 23-07] the figure was less than 1000 nM. Still for that read-out and setting: with `CC(C)OC(=O)NCc1c(C2CCCNC2)cc(-c2c(O)cccc2OCC2CC2)nc1N` (centres unmarked) [Example 23-08] the figure was less than 1000 nM; with `CC(C)COC(=O)NCc1c(C2CCCNC2)cc(-c2c(O)cccc2OCC2CC2)nc1N` (centres unmarked) [Example 23-09], less than 1000 nM.

As for `CC(C)(C)COC(=O)NCc1c(C2CCCNC2)cc(-c2c(O)cccc2OCC2CC2)nc1N` (centres unmarked) [Example 23-10], the IC50 is less than 1000 nM. With `CN(C)C(=O)NCc1c(C2CCCNC2)cc(-c2c(O)cccc2OCC2CC2)nc1N` (centres unmarked) [Example 23-11], the half-maximal inhibitory concentration (IC50) is less than 1000 nM. Still for that read-out and setting: with `CCCNC(=O)NCc1c(C2CCCNC2)cc(-c2c(O)cccc2OCC2CC2)nc1N` (centres unmarked) [Example 23-12] the figure was less than 1000 nM; with `NC(=O)NCc1c(C2CCCNC2)cc(-c2c(O)cccc2OCC2CC2)nc1N` (centres unmarked) [Example 23-13], less than 1000 nM; with `Nc1nc(-c2c(O)cccc2OCC2CC2)cc(C2CCCNC2)c1CNC(=O)Nc1ccccc1` (centres unmarked) [Example 23-14], less than 1000 nM.

Values taken from patent US6984649B1, “Pyridine derivatives” (Bayer Aktiengesellschaft, priority 2000, dated 2006).
